Measurements taken from the supplement of paper PMC10307832.

Columns and labels:
Assay in all cases: relative viability (nuclei count vs DMSO), 5 days (fraction); higher = more cells survive
Fedratinib + Crizotinib = compound: Cc1cnc(Nc2ccc(OCCN3CCCC3)cc2)nc1Nc1cccc(S(=O)(=O)NC(C)(C)C)c1 [Fedratinib] + C[C@@H](Oc1cc(-c2cnn(C3CCNCC3)c2)cnc1N)c1c(Cl)ccc(F)c1Cl [Crizotinib] (partner 1 µM)
How it was run: (§1)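 Relative viability divides the nuclei count in treated wells by that in vehicle wells. Lung cancer cell lines were seeded in 1536-well plates, dosed by pin tool the next day, and fixed and stained after 5 days in one step with final 0.05% Triton X-100, 1% formaldehyde and 1 ug/ml Hoechst. Dosing was a single drug or a fixed anchor-drug dose plus five library-drug doses (not always all listed) in √10 steps, and values are medians of duplicate plates imaged at 4×.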

Fedratinib + Pemetrexed = compound: Cc1cnc(Nc2ccc(OCCN3CCCC3)cc2)nc1Nc1cccc(S(=O)(=O)NC(C)(C)C)c1 [Fedratinib] + Nc1nc2[nH]cc(CCc3ccc(C(=O)N[C@@H](CCC(=O)O)C(=O)O)cc3)c2c(=O)[nH]1 [Pemetrexed] (partner 0.2 µM)
How it was run: as §1

GW-2580 + OSI-027 = compound: COC1=CC=C(C=C1)COC2=C(C=C(C=C2)CC3=CN=C(N=C3N)N)OC [GW-2580] + COc1cccc2cc(-c3nc([C@H]4CC[C@H](C(=O)O)CC4)n4ncnc(N)c34)[nH]c12 [OSI-027] (partner 0.5 µM)
How it was run: as §1

Fedratinib + OSI-027 = compound: Cc1cnc(Nc2ccc(OCCN3CCCC3)cc2)nc1Nc1cccc(S(=O)(=O)NC(C)(C)C)c1 [Fedratinib] + COc1cccc2cc(-c3nc([C@H]4CC[C@H](C(=O)O)CC4)n4ncnc(N)c34)[nH]c12 [OSI-027] (partner 0.5 µM)
How it was run: as §1

GW-2580 + Decitabine = compound: COC1=CC=C(C=C1)COC2=C(C=C(C=C2)CC3=CN=C(N=C3N)N)OC [GW-2580] + Nc1ncn([C@H]2C[C@H](O)[C@@H](CO)O2)c(=O)n1 [Decitabine] (partner 2 µM)
How it was run: as §1

Fedratinib + Olaparib = compound: Cc1cnc(Nc2ccc(OCCN3CCCC3)cc2)nc1Nc1cccc(S(=O)(=O)NC(C)(C)C)c1 [Fedratinib] + O=C(c1cc(Cc2n[nH]c(=O)c3ccccc23)ccc1F)N1CCN(C(=O)C2CC2)CC1 [Olaparib] (partner 8 µM)
How it was run: as §1

Cell Line	relative viability (Fedratinib + Crizotinib; first compound 0.1 µM)	relative viability (Fedratinib + Crizotinib; first compound 0.3162 µM)	relative viability (Fedratinib + Crizotinib; first compound 1 µM)	relative viability (Fedratinib + Pemetrexed; first compound 0.1 µM)	relative viability (Fedratinib + Pemetrexed; first compound 0.3162 µM)	relative viability (Fedratinib + Pemetrexed; first compound 1 µM)	relative viability (GW-2580 + OSI-027; first compound 0.08 µM)	relative viability (GW-2580 + OSI-027; first compound 0.8 µM)	relative viability (GW-2580 + OSI-027; first compound 2.53 µM)	relative viability (GW-2580 + OSI-027; first compound 8 µM)	relative viability (Fedratinib + OSI-027; first compound 0.1 µM)	relative viability (Fedratinib + OSI-027; first compound 0.3162 µM)	relative viability (Fedratinib + OSI-027; first compound 1 µM)	relative viability (GW-2580 + Decitabine; first compound 0.08 µM)	relative viability (GW-2580 + Decitabine; first compound 0.8 µM)	relative viability (GW-2580 + Decitabine; first compound 2.53 µM)	relative viability (GW-2580 + Decitabine; first compound 8 µM)	relative viability (Fedratinib + Olaparib; first compound 0.1 µM)	relative viability (Fedratinib + Olaparib; first compound 0.3162 µM)	relative viability (Fedratinib + Olaparib; first compound 1 µM)
HARA	1.16	1.04	1.05	0.253	0.259	0.185	0.504	0.452	0.491	0.395	0.494	0.575	0.291	0.658	0.617	0.599	0.409	0.785	0.826	0.557
NCI-H838	0.669	0.847	0.745	0.236	0.224	0.225	0.413	0.428	0.472	0.431	0.31	0.471	0.259	0.438	0.466	0.435	0.426	0.677	0.837	0.6
NCI-H1755	0.858	0.862	0.802	0.506	0.416	0.449	0.757	0.676	0.686	0.703	0.601	0.757	0.651	0.695	0.714	0.757	0.654	0.898	0.861	0.855
HCC-78	0.346	–	0.305	0.963	0.838	0.881	0.362	0.434	0.337	0.337	0.366	0.381	0.362	0.699	0.786	0.634	0.698	0.847	0.87	0.827
IA-LM	0.805	0.589	0.736	–	–	–	–	–	–	–	–	–	–	–	–	–	–	0.829	0.751	0.819
NCI-H322M	0.949	0.877	0.966	0.61	0.651	0.538	0.528	0.562	0.634	0.538	0.548	0.566	0.462	0.73	0.816	0.611	0.489	0.861	0.772	0.643
NCI-H3122	0.317	0.235	0.265	0.186	0.189	0.197	1.28	1.24	1.19	0.895	0.911	0.918	0.854	0.377	0.411	0.437	0.54	0.739	0.632	0.608
NCI-H1793	–	–	–	0.81	0.847	0.724	0.365	0.323	0.306	0.254	0.237	0.271	0.234	0.493	0.614	0.473	0.503	0.998	0.941	0.775
NCI-H2342	–	–	–	0.801	0.765	0.775	0.574	0.671	0.519	0.62	0.615	0.65	0.559	0.673	0.654	0.692	0.735	0.462	0.456	0.472
NCI-H1299	0.884	0.946	0.94	–	–	–	–	–	–	–	–	–	–	–	–	–	–	0.955	0.881	0.904
SW 900	–	–	–	0.466	0.525	0.444	0.69	0.693	0.569	0.75	0.522	0.539	0.35	0.467	0.45	0.422	0.472	0.95	0.887	0.695
NCI-H727	0.791	0.688	0.661	–	–	–	0.595	0.761	0.629	0.575	0.504	0.674	0.534	0.784	1.12	0.808	0.768	0.732	0.787	0.741
NCI-H1648	–	–	–	0.598	0.675	0.328	0.27	–	–	0.231	0.221	0.263	0.269	0.531	–	0.464	0.552	0.655	0.59	0.691
NCI-H522	–	–	–	0.767	0.951	0.902	0.688	0.618	0.845	0.723	0.629	0.825	0.566	0.738	0.62	0.668	0.682	0.655	0.643	0.615
NCI-H1395	–	–	–	0.728	0.952	0.665	0.64	0.689	0.661	0.684	0.553	0.694	0.545	0.793	0.689	0.753	0.776	0.416	0.468	0.444
A549	0.638	0.609	0.687	–	–	–	–	–	–	–	–	–	–	–	0.264	0.21	0.288	0.391	0.269	0.354
NCI-H1563	0.898	0.893	0.842	0.737	0.624	0.824	0.827	0.803	0.737	0.707	0.742	0.812	0.754	–	–	–	–	–	–	–
ABC-1	0.566	1.1	0.769	–	–	–	0.471	0.533	0.502	0.53	0.607	0.467	0.448	0.72	1.01	1.22	0.934	0.657	0.984	0.822
